Paper PMC4712357 (Molecular informatics, 2015)

Experiment: Vesicle rupture assay
Assay type: biochemical
Details: POPC LUVs, relative to Triton X-100 (=100%)

EWGQGLTSFWHL [compound 2]
rupturing of POPC vesicles: 50–75%
